The source of these data is patent publication US20210346342A1, “COMBINATION OF AN UROLITHIN WITH AN IMMUNOTHERAPY TREATMENT” (Amazentis SA, priority 2019, published 2021).

Data set [1] deals with APTK organoid xenograft tumours. The data set can be described thus: APTK organoid model combined with anti-PD1 injections. Format: in vivo, mouse. The following applies: Urolithin A 200 mpk with isotype control antibody vs anti-PD1 200 μg i.p. every third day, FIG. 8. Here is the method: • C57BL/6 mice are transplanted subcutaneously with APTK organoids as described in Example 2 and either, fed with a Urolithin A 200 mpk or control diet (initiated one week prior to subcutaneous injection) and receive 4 intraperitoneal injections (200 μg every third day, starting day 5) of a blocking anti-PD1 or isotype control antibody (BioXCell).

Data set [2] deals with AOM model of colorectal cancer. The data set can be described thus: AOM model of colorectal cancer: lesion count/size (H&E) and anti-CD3 immunostaining of colonic mucosa. It is filed as in vivo, mouse. Here is the method: • A model of sporadic tumourigenesis can be obtained applying repetitively azoxymethane (AOM), without dextran sodium sulphate, to female wild-type FVB mice. In particular, tumours are induced by six weekly intraperitoneal injections of AOM (10 mg/kg) in wild type animals. Mice are analysed 18-24 weeks later. Urolithin A is applied in the diet at a dose of 50 or 200 mg/kg mouse a day (mpk), or control lab diet one week before starting the 6 injections of AOM, during the 6 weeks of injections with AOM, and for approximately 20 weeks following these injections, for a total of ca. 27-30 weeks. At the end of the treatment period, mice are euthanized by cervical dislocation for the collection of intestinal tissues.

Data set [3] has as its system APTK organoid xenograft tumours. The data set is described as follows: APTK organoid subcutaneous xenograft tumour model: tumour volume, CD3 and cleaved caspase 3 staining. It is filed as in vivo, mouse. An excerpt: • Colorectal cancer organoids (from here on also referred to as APTK organoids) are generated by the selective introduction of tumourigenic mutation in the gene APC (A), p53 (P), Tgf-beta1 (T) and K-ras (K). Since APTK organoids have been developed on a C57/BL6 genetic background, they can be transplanted to generate tumours in wild type BL6 mice with an intact immune system that allows to study the immune response towards the developing tumour. One week prior to subcutaneous transplantation, the mice are fed either a Urolithin A-containing or control diet. Tumour growth is assessed by calliper measurements. The resulting tumours are analysed histologically.

The nature of data set [4]: Pharmacokinetic profile of orally administered urolithin A. It is filed as in vivo. The following applies: 250 mg to 1000 mg urolithin A compared with 2000 mg.
Data set [5] deals with APTK organoid xenograft tumours. The data set can be described thus: APTK organoid model with depletion of CD8+ cytotoxic T cells by anti-CD8. It is filed as in vivo, mouse. The following applies: UA 200 mpk diet plus anti-CD8 150 μg i.p. every second day, FIG. 7. Here is the method:
For this model, C57/BL6 were maintained on a Urolithin A 200 mpk or control diet. One week after starting the dietary intervention, mice were transplanted subcutaneously with APTK organoids as described above. Starting at day 3, these mice received 5 intraperitoneal injections (150 μg every second day) of an anti-CD8 or isotype control antibody (BioXCell) to deplete CD8+ cytotoxic T cells. As in the previous experiments, tumour growth is measured by calliper measurements.

Data set [6] relates to advanced, previously untreated non-small cell lung cancer. The following applies: patients with advanced; cited from earlier work.
Data set [7] concerns previously treated, unresectable melanoma. Particulars: patients with previously treated; cited from earlier work.

Take `O=c1oc2cc(O)ccc2c2ccc(O)cc12` [Urolithin A]: the “tumour growth, Urolithin A alone versus anti-PD1 antibody treatment” value in data set [1] is given as “no difference was observed”. In data set [2] (UA 200 mpk in diet vs control diet, H&E of colonic tissue, FIG. 2), the number of lesions entry was “significantly decreases the number of lesions”. Besides, the “CD3 positive cells in colonic mucosa” value in data set [2] (UA 200 mpk vs control, anti-CD3 immunostaining, FIG. 3) is reported as “tend to have more CD3 positive cells”. Moreover, in data set [2] (UA treated animals vs control diet, FIG. 2), the size of lesions result is given as “appear to be of smaller size”. In data set [3] (UA 200 mpk diet vs control diet, calliper, FIG. 4), the tumour volume result was “significant lower tumour volume”. Further, in data set [3] (UA 200 mpk vs control, FIG. 5), the “CD3 positive cells at the invasive margin” value is recorded as “less CD3 positive cells at the invasive margin” and the “CD3 positive cells inside the core of the tumours” value is given as “more CD3 positive cells inside the core of the tumours”. Also, the “cleaved Casp3 staining (marker of apoptosis)” value in data set [3] (UA 200 mpk vs control, FIG. 6) was “significant increase of cleaved Casp3 staining”. Also, in data set [4], the pharmacokinetic profile entry was “surprisingly good pharmacokinetic profile”. Moreover, the “anti-tumoural effect (tumour volume) when CD8+ cytotoxic T cells are abrogated” value in data set [5] is given as “anti-tumoural effect of UA is lost”.

For “pembrolizumab: humanized monoclonal IgG4 antibody directed against human cell surface receptor PD-1”, the response rate in data set [6] was 26%; in data set [7], 34%. In addition, the progression free survival in data set [7] is 50 weeks.

Regarding nivolumab, the response rate in data set [6] is given as 30%. Further, in data set [7], the progression free survival is on record as 9.7 months and the response rate is 31%.
